Reference: US5795882A, “Method of treating prostatic diseases using delayed and/or sustained release vitamin D formulations” (Bone Care International, Inc., priority 1996, dated 1998)

Experiments:
PC-3 = experiment: Inhibition of prostate cell proliferation, PC-3; format: cell-based, human; conditions: PC-3, 10^-11 to 10^-7 M, 6-7 days
Method: (§1) The cell lines, LNCaP and PC-3, which are derived from human prostate adenocarcinoma, are seeded in six-well tissue culture plates at a density of about 50,000 cells/plate. After the cells have attached and stabilized, about 2-3 days, the medium is replenished with medium containing vehicle or the active vitamin D analogue, 1α,24-(OH)2 D2, at concentrations from 10^-11 to 10^-7 M. Medium containing test analogue or vehicle is replaced every three days. After 6-7 days, the medium is removed, and the cells are rinsed, precipitated with cold 5% trichloroacetic acid, and washed with cold ethanol. The cells are solubilized with 0.2N sodium hydroxide, and the amount of DNA determined by standard procedures.
(§2) The procedure of Example 19 is repeated using the active vitamin D analogue 1α,24-(OH)2 D4, and the cell number is determined.
(§3) The procedure of Example 19 is repeated using the active vitamin D analogue 1α,25-(OH)2 D4, and the cell number is determined.

prostate VDR = molecular target: T1, prostate VDR (Homo sapiens, UniProt P11473); experiment: Prostate cell VDR binding; conditions: 0.01-100 nM versus 1 nM 3H-1α,25-(OH)2 D3, 16-20 hrs, 4° C.
T1 sequence (P11473 1-427): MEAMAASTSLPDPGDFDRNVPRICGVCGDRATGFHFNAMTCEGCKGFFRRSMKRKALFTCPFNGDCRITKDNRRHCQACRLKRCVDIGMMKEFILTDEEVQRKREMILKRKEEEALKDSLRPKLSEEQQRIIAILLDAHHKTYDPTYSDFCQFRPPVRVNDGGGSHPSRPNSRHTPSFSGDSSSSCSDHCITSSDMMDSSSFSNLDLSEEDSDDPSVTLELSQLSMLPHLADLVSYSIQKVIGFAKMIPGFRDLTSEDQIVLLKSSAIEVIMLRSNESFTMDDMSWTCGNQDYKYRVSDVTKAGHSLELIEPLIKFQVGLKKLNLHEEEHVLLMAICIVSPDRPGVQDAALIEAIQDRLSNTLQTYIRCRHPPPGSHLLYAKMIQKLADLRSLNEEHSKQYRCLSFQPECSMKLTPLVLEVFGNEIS
Method: Prostate-derived cell lines are cultured to near confluence, washed and harvested by scraping. Cells are washed by centrifugation, and the cell pellet resuspended in a buffered salt solution containing protease inhibitors. The cells are disrupted by sonication while cooling on ice. The supernatant obtained from centrifuging the disrupted cells at 207,000×g for 35 min at 4° C. is assayed for binding. 200 μL of soluble extract, (1-2 mg protein/ml supernatant) is incubated with a 1 nM ^3 H-1α,25-(OH)2 D3 and increasing concentrations of 1α,24-(OH)2 -D2 (0.01-100 nM) for 16-20 hrs at 4° C. Bound and free hormones are separated with hydroxylapatite using standard procedures. Specific binding is calculated by subtracting nonspecific binding obtained in the presence of a 250-fold excess of nonradioactive 1α,25-(OH)2 D3 from the total binding measured.
The procedure of Example 16 is repeated using the active vitamin D analogue 1α,24-dihydroxyvitamin D4, and the specific binding is determined.
The procedure of Example 16 is repeated using the active vitamin D analogue 1α,25-dihydroxyvitamin D4, and the specific binding is determined.

LNCaP [1] = experiment: Stimulation of prostate cell differentiation (PSA), LNCaP; format: cell-based, human; conditions: 10^-11 to 10^-7 M, 6-7 days
Method: Using the techniques of Skowronski et al., 132 Endocrinology (1993) 1952-1960 and 136 Endocrinology (1995) 20-26, both of which are incorporated herein by reference, cells of the cell line, LNCaP, which is derived from a human metastatic prostate adenocarcinoma and known to express PSA, are seeded in six-well tissue culture plates at a density of about 50,000 cells/plate. After the cells have attached and stabilized, about 2-3 days, the medium is replenished with medium containing vehicle or the active vitamin D analogue, 1α,24-(OH)2 D2, at concentrations from 10^-11 to 10^-7 M. After 6-7 days, the medium is removed and stored at -20° C. for prostate specific antigen (PSA) analysis.
The cells are rinsed, precipitated, and the amount of DNA determined by standard procedures. The cells are resuspended, and the cell number determined. PSA is measured by standard known methods.
The procedure of Example 22 is repeated except the active vitamin D analogue is 1α,24-(OH)2 D4.
The procedure of Example 22 is repeated except the active vitamin D analogue is 1α,25-(OH)2 D4.

LNCaP [2] = experiment: Inhibition of prostate cell proliferation, LNCaP; format: cell-based, human; conditions: 10^-11 to 10^-7 M, 6-7 days
Method: as §1, §2, §3

Vitamin D Receptor = molecular target: T2, Vitamin D Receptor (Homo sapiens, UniProt P11473); experiment: VDR competitive binding assay (Examples 6-8); conditions: in words; Examples 7 and 8 versus the vitamin form
T2 sequence (P11473 1-427): T1 sequence (P11473 1-427)

[3] = in vivo; cited from earlier work
[4] = system: prostate cancer cell lines; conditions: cited from earlier work
[5] = Comparison of oral bioavailability in rachitic rats (Example 5); format: in vivo, rat; conditions: rat, in vivo, 0.0015 mg/kg, 12 h after single oral dose 0.255 μg (approximately 1.5 μg/kg) in fractionated coconut oil, n=6, ± SD, ** p < 0.01 relative to 1α,25(OH)2 D3, read-out: Serum 1α,25-(OH)2 D3
Method: Three-week-old rats were maintained on a vitamin D-deficient diet containing normal levels of calcium and phosphorus for 3-6 weeks until marked hypocalcemia was observed. […] A control group received only the vehicle. For all treatment groups, blood was obtained at 12 hours postdosing, and analyzed for serum levels of the vitamin form.

leukemia cells = conditions: by inducing differentiation to nonmalignant macrophages; cited from earlier work
malignant cells = conditions: cited from earlier work
[6] = In vitro thermal conversion of 1α-hydroxyprevitamin D to 1α-hydroxyvitamin D; format: physicochemical; conditions: in ethanol, 37° C.
Method: A series of experiments were conducted which address the in vitro conversion of previtamin to vitamin for three 1α-hydroxyprevitamin D's: 1α-hydroxyprevitamin D2, 1α,24-dihydroxyprevitamin D2 and 1α-hydroxyprevitamin D3. Each 1α-hydroxyprevitamin D was dissolved in ethanol, incubated at 37° C. in a water bath, and samples taken at two-hour intervals. An analytical HPLC separation was performed on each sample to quantify the thermal conversion of the previtamin to the vitamin form. The data collected were normalized to account for the presence of any vitamin form in the initial formulation (≤10%). The results are presented in FIG. 1 which is a plot of % previtamin versus time in hours. Linear regression lines were generated for each previtamin.

luteinizing hormone (LH) = conditions: cited from earlier work

| Compound | number of cells versus control cultures (PC-3) | affinity for prostate VDR (prostate VDR) | PSA (mass of PSA/cell) versus control cultures (LNCaP [1]) | number of cells versus control cultures (LNCaP [2]) | other results |
| --- | --- | --- | --- | --- | --- |
| C=C1/C(=C\C=C2/CCC[C@]3(C)[C@@H]([C@H](C)/C=C/C(C)(O)C(C)C)CC[C@@H]23)C[C@@H](O)C[C@@H]1O (stereo partly drawn) [1α,24-(OH)2 D2, 1α,24-dihydroxyvitamin D2] | significantly fewer cells than the control cultures | strong affinity for prostate VDR | significantly more PSA than control cultures | significantly fewer cells than the control cultures |  |
| C=C1/C(=C\C=C2/CCC[C@]3(C)[C@@H]([C@H](C)CCC(C)(O)C(C)C)CC[C@@H]23)C[C@@H](O)C[C@@H]1O (stereo partly drawn) [1α,24-(OH)2 D4, 1α,24-dihydroxyvitamin D4] | significantly fewer cells than the control cultures | strong affinity for prostate VDR | significantly more PSA than control cultures | significantly fewer cells than the control cultures |  |
| CC1=C(/C=C\C2=CCC[C@]3(C)[C@@H]([C@H](C)CCC(C)(O)C(C)C)CC[C@@H]23)C[C@@H](O)C[C@@H]1O (stereo partly drawn) [1α,24-(OH)2 preD4, 1α,24-dihydroxyprevitamin D4] |  |  |  |  | VDR binding affinity (Vitamin D Receptor): substantially less affinity for the receptor than does its vitamin form |
| C=C1/C(=C\C=C2/CCC[C@]3(C)[C@@H]([C@H](C)CCCC(C)(C)O)CC[C@@H]23)C[C@@H](O)C[C@@H]1O [1α,25-(OH)2 D3, 1α,25-dihydroxyvitamin D3] |  |  |  |  | risk of hypercalcemia limiting clinical use as anti-cancer agent [3]: precluded, or severely limited, by the risk of hypercalcemia; antiproliferative and differentiating actions [4]: Antiproliferative and differentiating actions; concentration at 12 h [5]: 0.327 ± 0.192 ng/mL; antileukemic activity (leukemia cells): potent antileukemic activity; growth and differentiation of malignant cells (malignant cells): regulate growth and promote the differentiation of many malignant cells |
| C=C1/C(=C\C=C2/CCC[C@]3(C)[C@@H]([C@H](C)CC[C@H](C)C(C)(C)O)CC[C@@H]23)C[C@@H](O)C[C@@H]1O [1α,25-(OH)2 D4, 1α,25-dihydroxyvitamin D4] | significantly fewer cells than the control cultures | strong affinity for prostate VDR | significantly more PSA than control cultures | significantly fewer cells than the control cultures |  |
| C=C1/C(=C\C=C2/CCC[C@]3(C)[C@@H]([C@H](C)CCCC(C)C)CC[C@@H]23)C[C@@H](O)C[C@@H]1O [1α-(OH)D3, 1α-hydroxyvitamin D3] |  |  |  |  | antileukemic activity (leukemia cells): potent antileukemic activity |
| CC1=C(/C=C\C2=CCC[C@]3(C)[C@@H]([C@H](C)/C=C/[C@H](C)C(C)C)CC[C@@H]23)C[C@@H](O)C[C@@H]1O [1α-(OH)preD2, 1α-hydroxyprevitamin D2] |  |  |  |  | half-life [6]: 12.9 h |
| CC/C(=C(/CC)c1ccc(O)cc1)c1ccc(O)cc1 [diethylstilbestrol] |  |  |  |  | cardiovascular profile (luteinizing hormone (LH); in vivo): poor cardiovascular profile; inhibition of the release of luteinizing hormone from the pituitary gland (luteinizing hormone (LH); in vivo): potent inhibitors of the release from the pituitary gland of luteinizing hormone; dose achieving maximum suppression of plasma testosterone (luteinizing hormone (LH); men): 3 mg/day |
